Laboratory results published in patent publication US10954287B2, “Ras binding peptides and methods of use” (Ra Pharmaceuticals, Inc., priority 2016, dated 2021).
*1 amine or outer side, *2 acyl side, *3 side chain or, on linkers, in order; H or OH if unused. Bridges are numbered along the chain shown (N, C = ends). [ ]: non-standard residue; d: D form. ξ: configuration not given here. DAPTZAC3 = (S)-3-(4-(3-acrylamidopropyl)-1H-1,2,3-triazol-1-yl)-2-aminopropanoic acid, C=CC(=O)NCCCc1cn(C[C@H](N[*:1])C(=O)[*:2])nn1; ADTZPA = (S)-2-amino-3-(1-dodecyl-1H-1,2,3-triazol-4-yl)propanoic acid; m‑xylylene = m-xylylene thioether bridge between Cys; Trp(7-aza) = N[C@@H](Cc1c[nH]c2ncccc12)C(=O)O; NMePhe(4-F) = CN[C@@H](Cc1ccc(F)cc1)C(=O)O; PEG4 = NCCOCCOCCOCCOCCC(=O)O; Phg = N[C@H](C(=O)O)c1ccccc1; Tle = CC(C)(C)[C@H](N)C(=O)O; ξPhg = NC(C(=O)O)c1ccccc1; NMeA = CN[C@@H](C)C(=O)O; Nva = CCC[C@H](N)C(=O)O; Sar = CNCC(=O)O

Test system: GMPPNP-loaded H-Ras or GTP-loaded K-Ras
Test: Fluorescence polarization competition assay with TAMRA-labeled probe R4007
Type: binding, human
Conditions: 120 nM Ras, 30 nM probe R4007, 60 minutes at room temperature; read-out: Probe displacement (nM IC50)
Method: R4000 was evaluated for competition with a TAMRA labeled probe (R4007) based on peptide R4000. The assay was performed in 384-well black, non-binding plates (Greiner Bio-One, Monroe, N.C.). GMPPNP-loaded H-Ras or GTP-loaded K-Ras, diluted in FP assay buffer (20 mM Tris-HCl, pH 7.5, 50 mM NaCl, 5 mM MgCl2, 1 mM EDTA, 0.002% Triton-X-100) for a final concentration of 120 nM was incubated with 30 nM R4007 for 20 minutes at room temperature. R4000 was serially diluted, added to the assay and incubated for 60 minutes at room temperature. Fluorescence polarization was detected with a SpectraMax Paradigm plate reader (Molecular Devices, Sunnyvale, Calif.) using the Rhodamine FP detection cartridge (535 nm/595 nm). Data was analyzed using GraphPad Prism and Ki determined using One Site Ki Curve fitting model.
Peptides were evaluated for competition with R4007, a probe consisting of TAMRA-labeled R4000, using a fluorescence polarization (FP) competition assay. The assay was performed in 384-well black, non-binding plates (Greiner Bio-One, Monroe, N.C.). GMPPNP-loaded H-Ras or GTP- loaded K-Ras, diluted in FP assay buffer (20 mM Tris-HCl, pH 7.5, 50 mM NaCl, 5 mM MgCl2, 1 mM EDTA, 0.002% Triton-X-100) for a final concentration of 120 nM was incubated with 30 nM probe for 20 minutes at room temperature. Peptides were serially diluted, added to the assay and incubated for 60 minutes at room temperature. Fluorescence was detected with a SpectraMax Paradigm plate reader (Molecular Devices, Sunnyvale, Calif.) using the Rhodamine FP detection cartridge (535 nm/595 nm). Data was analyzed and Ki determined using a One Site Ki Curve fitting model. Percent inhibition for each data point was calculated relative to the maximal binding in test compound-free control wells (showing no probe displacement) and Ras-free control wells (showing no probe binding) and the half-maximal inhibitory concentration (IC50), based on probe displacement, was determined.

`CCC[C@H](NC(C)=O)C(=O)N[C@H]1CSCc2cccc(c2)CSC[C@@H](C(=O)NCC(=O)N[C@@H](CS)C(=O)N[C@@H](CCSC)C(=O)N[C@@H](CO)C(=O)N[C@@H](CS)C(=O)N[C@@H](CCCCN)C(=O)N[C@@H](CS)C(=O)N[C@H](C(=O)N[C@@H](CC(C)C)C(=O)N[C@@H](CO)C(N)=O)C(C)C)NC(=O)CN(C)C(=O)[C@H](Cc2ccc(F)cc2)N(C)C(=O)[C@H](Cc2ccc(O)cc2)NC(=O)[C@H](Cc2c[nH]c3ncccc23)NC(=O)[C@H](c2ccccc2)NC(=O)[C@H](C)N(C)C(=O)[C@H](Cc2c[nH]cn2)NC(=O)[C@H](CCCCN)NC(=O)[C@H](C(C)(C)C)NC(=O)[C@H](Cc2ccc(O)cc2)NC1=O` (relative stereo) [Compound R4116, ACE-NVA-CYS*-TYR-TBG-LYS-HIS-NMA-PHG-7AW-TYR-MFF-SAR-CYS*-GLY-CYS-MET-SER-CYS-LYS-CYS-VAL-LEU-SER-NH2] was tested, and the IC50 was 35.7 nM.

For `CC(=O)N[C@H]1CSCc2cccc(c2)CSC[C@@H](C(N)=O)NC(=O)CN(C)C(=O)[C@H](Cc2ccc(F)cc2)N(C)C(=O)[C@H](Cc2ccc(O)cc2)NC(=O)[C@H](Cc2c[nH]c3ncccc23)NC(=O)[C@H](c2ccccc2)NC(=O)[C@H](C)N(C)C(=O)[C@H](Cc2c[nH]cn2)NC(=O)[C@H](CCCCN)NC(=O)[C@H](C(C)(C)C)NC(=O)[C@H](Cc2ccc(O)cc2)NC1=O` (relative stereo) [Compound R4112, ACE-CYS*-TYR-TBG-LYS-HIS-NMA-PHG-7AW-TYR-MFF-SAR-CYS*-NH2], the IC50 was 21.4 nM.

`CCC[C@H](NC(C)=O)C(=O)N[C@H]1CSCc2cccc(c2)CSC[C@@H](C(N)=O)NC(=O)CN(C)C(=O)[C@H](Cc2ccc(F)cc2)N(C)C(=O)[C@H](Cc2ccc(O)cc2)NC(=O)[C@H](Cc2c[nH]c3ncccc23)NC(=O)[C@H](c2ccccc2)NC(=O)[C@H](CCCCN)N(C)C(=O)[C@H](Cc2c[nH]cn2)NC(=O)[C@H](C)NC(=O)[C@H](C(C)(C)C)NC(=O)[C@H](Cc2ccc(O)cc2)NC1=O` (relative stereo) [Compound R4125, ACE-NVA-CYS*-TYR-TBG-ALA-HIS-NMK-PHG-7AW-TYR-MFF-SAR-CYS*-NH2] gave an IC50 of 110 nM.

`C#CC[C@@H]1NC(=O)CN(C)C(=O)[C@H](Cc2ccc(F)cc2)N(C)C(=O)[C@H](Cc2ccc(O)cc2)NC(=O)[C@H](Cc2c[nH]c3ncccc23)NC(=O)[C@H](c2ccccc2)NC(=O)[C@H](C)N(C)C(=O)[C@H](Cc2c[nH]cn2)NC(=O)[C@H](CCCCN)NC(=O)[C@H](C(C)(C)C)NC(=O)[C@H](Cc2ccc(O)cc2)NC1=O` (relative stereo) [Compound R4145, TYR*-TBG-LYS-HIS-NMA-PHG-7AW-TYR-MFF-SAR-PRG*] gave an IC50 of 2800 nM.

In the case of `C=CC(=O)NC[C@@H]1NC(=O)[C@H](C)NC(=O)[C@H](C(C)(C)C)NC(=O)[C@H](Cc2ccc(O)cc2)NC(=O)[C@@H](NC(=O)[C@H](CCC)NC(C)=O)CSCc2cccc(c2)CSC[C@@H](C(N)=O)NC(=O)CN(C)C(=O)[C@H](Cc2ccc(F)cc2)N(C)C(=O)[C@H](Cc2ccc(O)cc2)NC(=O)[C@H](Cc2c[nH]c3ncccc23)NC(=O)[C@H](c2ccccc2)NC(=O)[C@H](C)N(C)C1=O` (relative stereo) [Compound R4136, ACE-NVA-CYS*-TYR-TBG-ALA-DABAC2-NMA-PHG-7AW-TYR-MFF-SAR-CYS*-NH2], the IC50 is reported as 392 nM.

`C[C@H]1C(=O)N[C@@H](c2ccccc2)C(=O)N[C@@H](Cc2c[nH]c3ncccc23)C(=O)N[C@@H](Cc2ccc(O)cc2)C(=O)N(C)[C@@H](Cc2ccc(F)cc2)C(=O)N(C)CC(=O)NCCOCCOCCC(=O)N[C@@H](Cc2ccc(O)cc2)C(=O)N[C@@H](C(C)(C)C)C(=O)N[C@@H](CCCCN)C(=O)N[C@@H](Cc2c[nH]cn2)C(=O)N1C` (relative stereo) [Compound R4124, PEG2PA*-TYR-TBG-LYS-HIS-NMA-PHG-7AW-TYR-MFF-SAR*] gave an IC50 of 88.4 nM.

`CCC[C@H](NC(C)=O)C(=O)N[C@H]1CSCc2cccc(c2)CSC[C@@H](C(=O)N[C@H](CO)C(=O)N[C@@H](CCCCN)C(=O)NCC(=O)N[C@@H](CSSC(C)(C)C)C(=O)N[C@H](C(=O)N[C@H](C(=O)N[C@@H](CCSC)C(=O)O)[C@@H](C)CC)C(C)C)NC(=O)CN(C)C(=O)[C@H](Cc2ccc(F)cc2)N(C)C(=O)[C@H](Cc2ccc(O)cc2)NC(=O)[C@H](Cc2c[nH]c3ncccc23)NC(=O)[C@H](c2ccccc2)NC(=O)[C@H](C)N(C)C(=O)[C@H](Cc2c[nH]cn2)NC(=O)[C@H](CCCCN)NC(=O)[C@H](C(C)(C)C)NC(=O)[C@H](Cc2ccc(O)cc2)NC1=O` (relative stereo) [Compound R4109, ACE-NVA-CYS*-TYR-TBG-LYS-HIS-NMA-PHG-7AW-TYR-MFF-SAR-CYS*-DSER-LYS-GLY-TDSPA-VAL-ILE-MET] gave an IC50 of 14.2 nM.

In the case of `CCC[C@H](N)C(=O)N[C@H]1CSCc2cccc(c2)CSC[C@@H](C(=O)N[C@H](CO)C(=O)N[C@@H](CCCCN)C(=O)NCC(=O)N[C@@H](CS)C(=O)N[C@H](C(=O)N[C@H](C(=O)N[C@@H](CCSC)C(=O)O)[C@@H](C)CC)C(C)C)NC(=O)CN(C)C(=O)[C@H](Cc2ccc(F)cc2)N(C)C(=O)[C@H](Cc2ccc(O)cc2)NC(=O)[C@H](Cc2c[nH]c3ncccc23)NC(=O)[C@H](c2ccccc2)NC(=O)[C@H](C)N(C)C(=O)[C@H](Cc2c[nH]cn2)NC(=O)[C@H](CCCCN)NC(=O)[C@H](C(C)(C)C)NC(=O)[C@H](Cc2ccc(O)cc2)NC1=O` (relative stereo) [Compound R4114, NVA-CYS*-TYR-TBG-LYS-HIS-NMA-PHG-7AW-TYR-MFF-SAR-CYS*-DSER-LYS-GLY-CYS-VAL-ILE-MET], the IC50 is reported as 32.7 nM.

For `CCC[C@H](NC(C)=O)C(=O)N[C@H]1CSCc2cccc(c2)CSC[C@@H](C(N)=O)NC(=O)CN(C)C(=O)[C@H](Cc2ccc(F)cc2)N(C)C(=O)[C@H](Cc2ccc(O)cc2)NC(=O)[C@H](Cc2c[nH]c3ncccc23)NC(=O)[C@H](c2ccccc2)NC(=O)[C@H](C)N(C)C(=O)[C@H](C)NC(=O)[C@H](CCCCN)NC(=O)[C@H](C(C)(C)C)NC(=O)[C@H](Cc2ccc(O)cc2)NC1=O` (relative stereo) [Compound R4126, ACE-NVA-CYS*-TYR-TBG-LYS-ALA-NMA-PHG-7AW-TYR-MFF-SAR-CYS*-NH2], the IC50 was 127 nM.

`CCC[C@H](NC(=O)CCCC(=O)O)C(=O)N[C@H]1CSCc2cccc(c2)CSC[C@@H](C(N)=O)NC(=O)CN(C)C(=O)[C@H](Cc2ccc(F)cc2)N(C)C(=O)[C@H](Cc2ccc(O)cc2)NC(=O)[C@H](Cc2c[nH]c3ncccc23)NC(=O)[C@H](c2ccccc2)NC(=O)[C@H](C)N(C)C(=O)[C@H](Cc2c[nH]cn2)NC(=O)[C@H](CCCCNC(CC(C)C)=C2C(=O)CC(C)(C)CC2=O)NC(=O)[C@H](C(C)(C)C)NC(=O)[C@H](Cc2ccc(O)cc2)NC1=O` (relative stereo) [Compound R4138, GLA-NVA-CYS*-TYR-TBG-LYS-(DDE)-HIS-NMA-PHG-7AW-TYR-MFF-SAR-CYS*-NH2] gave an IC50 of 461 nM.

For `C=CC(=O)NCCCC[C@@H]1NC(=O)[C@H](C)NC(=O)[C@H](C(C)(C)C)NC(=O)[C@H](Cc2ccc(O)cc2)NC(=O)[C@@H](NC(=O)[C@H](CCC)NC(C)=O)CSCc2cccc(c2)CSC[C@@H](C(N)=O)NC(=O)CN(C)C(=O)[C@H](Cc2ccc(F)cc2)N(C)C(=O)[C@H](Cc2ccc(O)cc2)NC(=O)[C@H](Cc2c[nH]c3ncccc23)NC(=O)[C@H](c2ccccc2)NC(=O)[C@H](C)N(C)C1=O` (relative stereo) [Compound R4123, ACE-NVA-CYS*-TYR-TBG-ALA-KAC-NMA-PHG-7AW-TYR-MFF-SAR-CYS*-NH2], the IC50 was 85 nM.

“ACE-NVA-CYS*-TYR-TBG-LYS-HIS-NMA-PHG-7AW-TYR-MFF-SAR-CYS*-PEG4PA-ADTZPA-NH2 (Ac-[Nva]CY[Tle]KH[NMeA][Phg][Trp(7-aza)]Y[NMePhe(4-F)][Sar]C-{PEG4-ADTZPA-NH2}; linker 2-13 via m‑xylylene) [Compound R4147, cyclized by a m-xylylene thioether bridge]” was tested, and the IC50 was 5190 nM.

Compound “ACE-NVA-SER-TYR-TBG-ALA-DAPTZAC3-NMA-RPHG-7AW-TYR-MFF-SAR-SER-NH2 (Ac-[Nva]SY[Tle]A[DAPTZAC3][NMeA][ξPhg][Trp(7-aza)]Y[NMePhe(4-F)][Sar]S-NH2) [Compound R4148, linear]” has an IC50 of 6000 nM.

Work on `CCC[C@H](NC(C)=O)C(=O)N[C@H]1CSCc2cccc(c2)CSC[C@@H](C(N)=O)NC(=O)CN(C)C(=O)[C@H](Cc2ccc(F)cc2)N(C)C(=O)[C@H](Cc2ccc(O)cc2)NC(=O)[C@H](Cc2c[nH]c3ncccc23)NC(=O)[C@H](c2ccccc2)NC(=O)[C@H](CO)N(C)C(=O)[C@H](Cc2c[nH]cn2)NC(=O)[C@H](CCCCN)NC(=O)[C@H](C(C)(C)C)NC(=O)[C@H](Cc2ccc(O)cc2)NC1=O` (relative stereo) [Compound R4132, ACE-NVA-CYS*-TYR-TBG-LYS-HIS-NMS-PHG-SA7AW-TYR-MFF-R-CYS*-NH2] yielded an IC50 of 281 nM.
